We go through 15 compounds from US11464749B2, “Bismuth-thiol compositions and methods of use” (Microbion Corporation, priority 2018, dated 2022).

The nature of the series: Particle size distribution of BisEDT samples vs processing conditions (Table 111). In kind it is physicochemical. Particulars: BisEDT sample. How it is done: It was observed that careful control of the reaction temperature and the rate of 1,2 ethanedithiol addition had pronounced impact on the BisEDT particle size distribution.
To a 1-L jacketed reactor was charged USP water (480 mL, 48 vol), followed by 70% HNO3 (34 mL, 3.4 vol). A solution of bismuth subnitrate (10 g, 6.84 mmols) in water (43 mL, 4.3 vol) and 70% HNO3 (14 mL, 1.4 vol) was added at 20° C. The reaction mixture was cooled to 15° C. for addition of 95% Ethanol. The 95% ethanol (180 mL, 18 vol) was then added slowly. (Ethanol addition is exothermic, temperature reached 22° C.). The temperature was then adjusted back to 20° C. […] The reaction was stirred at 20° C. overnight. The reaction mixture was filtered through polypropylene cloth and washed with 95% ethanol (45 mL, 4.5 vol). The wet cake was charged back to the reactor and slurried in 95% ethanol (380 mL, 38 vol) for two hours at 20° C. The suspension was then filtered (same cloth) and washed with 95% ethanol (30 mL, 3 vol). The wet cake was again slurried in 95% EtOH (170 mL, 17 vol) at 20° C., filtered (same cloth), and washed with 95% ethanol (30 mL, 3 vol). The wet cake was then slurried in acetone (170 mL, 17 vol) at 20° C. overnight, followed by filtration (same cloth) and acetone wash (20 mL, 2 vol). The acetone (170 ml, 17 vol) treatment was repeated on the solids and stirred for 2 hours. The suspension was filtered (same cloth) and washed with acetone (30 mL, 3 vol) and died at 45° C. and dried at 45° C. (18 hours) to provide canary yellow solid (10.81 g 91.0%).
Representative synthesis of BisEDT at 15° C. with 1 hour addition of thiol via syringe pump, and polypropylene cloth for filtration: The synthesis BisEDT was performed on 10-g scale, temperature profile was studied with data logger. Ethane dithiol was added at 15° C. over 1 hour via syringe pump and the filtration was performed using PP filter cloth. To a 1-L jacketed reactor was charged USP water (480 mL, 48 vol) and cooled to 15° C., followed by 70% HNO3 (34 mL, 3.4 vol). A solution of bismuth subnitrate (10 g, […]) in water (43 mL, 4.3 vol) and 70% HNO3 (14 mL, 1.4 vol) was added at the same temperature. The 95% ethanol (180 mL, 18 vol) was then added slowly. […] It was then allowed to cool to 15° C. This was followed by dropwise addition of 1,2 ethanedithiol (4.3 mL, […] in 95% ethanol in 94 mL, 9.4 vol) over an hour with the batch temperature at 15° C. The reaction was allowed to stir at 15° C. overnight. The reaction mixture was filtered through polypropylene cloth and washed with 95% ethanol (45 mL, 4.5 vol). The wet cake was charged back to the reactor and slurried in 95% ethanol (380 mL, 38 vol) for two hours at 20° C. The suspension was then filtered (same cloth) and washed with 95% ethanol (30 mL, 3 vol). The wet cake was again slurried in 95% EtOH (170 mL, 17 vol) at 20° C., filtered (same cloth), and washed with 95% ethanol (30 mL, 3 vol). The wet cake was then slurried in acetone (170 mL, 17 vol) at 20° C. overnight, followed by filtration (same cloth) and acetone wash (20 mL, 2 vol). The acetone (170 ml, 17 vol) treatment was repeated on the solids and stirred for 2 hours. The suspension was filtered (same cloth) and washed with acetone (30 mL, 3 vol) and died at 45° C. and dried at 45° C. (18 hours) to provide canary yellow solid (10.43 g 87.8%).

As to `C1C[S][Bi]([S]CC[S][Bi]2[S]CC[S]2)[S]1` [Sample 11], the “D (10)” value is on record as 0.38 μm, the “D (50)” value is reported as 1.2 μm, the “D (90)” value was 2.4 μm and the “D [4,3]” value is recorded as 1.4 μm.

Take `C1C[S][Bi]([S]CC[S][Bi]2[S]CC[S]2)[S]1` [Sample 10]: the “D (10)” value was determined as 0.36 μm, the “D (50)” value worked out at 0.88 μm, the “D (90)” value is given as 1.7 μm and the “D [4,3]” value came to 0.97 μm.

As for `C1C[S][Bi]([S]CC[S][Bi]2[S]CC[S]2)[S]1` [Sample 12], the “D (10)” value is 0.37 μm, the “D (50)” value is on record as 1.2 μm, the “D (90)” value turned out to be 2.4 μm and the “D [4,3]” value worked out at 1.3 μm.

For `C1C[S][Bi]([S]CC[S][Bi]2[S]CC[S]2)[S]1` [Sample 5], the “D (10)” value was 0.33 μm, the “D (50)” value is recorded as 0.72 μm, the “D (90)” value is given as 1.6 μm and the “D [4,3]” value worked out at 0.86 μm.

On to `C1C[S][Bi]([S]CC[S][Bi]2[S]CC[S]2)[S]1` [Sample 14], for which the “D (10)” value amounted to 0.36 μm, the “D (50)” value was 1.0 μm, the “D (90)” value amounted to 2.1 μm and the “D [4,3]” value is on record as 1.2 μm.

For the compound `C1C[S][Bi]([S]CC[S][Bi]2[S]CC[S]2)[S]1` [Sample 13], the “D (10)” value is listed as 0.36 μm, the “D (50)” value worked out at 0.98 μm, the “D (90)” value worked out at 2.1 μm and the “D [4,3]” value is given as 1.2 μm.

As to `C1C[S][Bi]([S]CC[S][Bi]2[S]CC[S]2)[S]1.SCCS` [Sample 1], the “D (10)” value is given as 0.80 μm, the “D (50)” value amounted to 2.4 μm, the “D (90)” value came to 5.9 μm and the “D [4,3]” value was found to be 2.9 μm.

For `C1C[S][Bi]([S]CC[S][Bi]2[S]CC[S]2)[S]1` [Sample 8], the “D (10)” value worked out at 0.36 μm, the “D (50)” value amounted to 1.0 μm, the “D (90)” value stood at 1.8 μm and the “D [4,3]” value was 1.0 μm.

With `C1C[S][Bi]([S]CC[S][Bi]2[S]CC[S]2)[S]1` [Sample 2], the “D (10)” value is recorded as 0.58 μm, the “D (50)” value is 1.7 μm, the “D (90)” value turned out to be 3.9 μm and the “D [4,3]” value is reported as 2.0 μm.

In the case of `C1C[S][Bi]([S]CC[S][Bi]2[S]CC[S]2)[S]1` [Sample 7], the “D (10)” value turned out to be 0.39 μm, the “D (50)” value was 1.3 μm, the “D (90)” value is reported as 1.6 μm and the “D [4,3]” value was determined as 1.4 μm.

Take `C1C[S][Bi]([S]CC[S][Bi]2[S]CC[S]2)[S]1.SCCS` [Sample 3]: the “D (10)” value was found to be 0.59 μm, the “D (50)” value stood at 1.9 μm, the “D (90)” value is on record as 4.5 μm and the “D [4,3]” value turned out to be 2.3 μm.

`C1C[S][Bi]([S]CC[S][Bi]2[S]CC[S]2)[S]1` [Sample 6]: the “D (10)” value came out at 0.34 μm, the “D (50)” value was 0.87 μm, the “D (90)” value was found to be 1.8 μm and the “D [4,3]” value was 0.98 μm.

With `C1C[S][Bi]([S]CC[S][Bi]2[S]CC[S]2)[S]1` [Sample 9], the “D (10)” value amounted to 0.67 μm, the “D (50)” value was found to be 1.0 μm, the “D (90)” value worked out at 1.9 μm and the “D [4,3]” value was 1.1 μm.

Turning to `C1C[S][Bi]([S]CC[S][Bi]2[S]CC[S]2)[S]1` [Sample 15], the “D (10)” value is 0.32 μm, the “D (50)” value is reported as 0.72 μm, the “D (90)” value is 1.6 μm and the “D [4,3]” value is reported as 0.86 μm.

Take `C1C[S][Bi]([S]CC[S][Bi]2[S]CC[S]2)[S]1` [Sample 4]: the “D (10)” value is listed as 0.44 μm, the “D (50)” value worked out at 1.48 μm, the “D (90)” value came out at 3.1 μm and the “D [4,3]” value is 1.7 μm.
